Results taken from patent publication US20110020312A1, “METHODS FOR TREATMENT OF METABOLIC DISORDERS USING EPIMETABOLIC SHIFTERS, MULTIDIMENSIONAL INTRACELLULAR MOLECULES, OR ENVIRONMENTAL INFLUENCERS” (priority 2009, published 2011).

Tests used:
[1] = test system: Pancreatic Cancer Cells (PaCa2); assay: Real-time PCR Angiogenesis Array; assay type: cell-based; conditions: 100 uM Q10, various times
Experimental: Experiments were carried out essentially as described above.

[2] = test system: SkBr-3 cells; assay: Real-time PCR Apoptosis Array; assay type: cell-based, human
Experimental: Changes in mRNA levels were evaluated using real-time PCR quantification to assess mRNA levels in pre-selected subsets containing […] pathway specific targets.
For the interpretation of mRNA results, the genes that were altered in their mRNA transcription by a two-fold level were identified and evaluated. The level of gene transcription to produce mRNA only provides a rough estimate of potential changes in the level of the expressed protein. The skilled artisan will appreciate that each mRNA may have different rates at which it is degraded or its translation inefficiently, thus resulting in differing amounts of protein.
The assay method of RT-PCR was utilized to provide a measure of mRNA level changes to a total of 84 apoptotic pathway related proteins.

[3] = test system: Hif1 alpha; assay: Western blot, Hif1 alpha levels; assay type: cell-based, human; conditions: for Hif1 alpha Lower Band Normalized Volume: HASMC
Experimental: The Actin blots were stripped by incubating for 30 minutes with methanol, followed by two 10 minute washes with TBS-T, then 30 minutes of incubation with Stripping buffer at 50 deg C., and followed by two washes with 100 ml or more of TBS-T for 30′ each. The blots were scanned in laser scanner to check for complete stripping. The blots were activated with methanol for 5 seconds, washed with water for 5 minutes, and TBST for 15 minutes. The blots were blocked for 1 hour with 5% blocking reagent in TBS-T at room temperature and then washed 3 times with TBS-T (1×-15′; 2×5′ each) and probed with the primary antibody for Hif 1 alpha, Caspase 3 or PDHB in 5% BSA (at 1:200 by incubation overnight at 4 deg C. with gentle shaking. The primary antibody for Hif 1 alpha (Abcam ab2185; antirabbit) was at 1:500 dilution in 5% BSA. The primary antibody for Caspase 3 (Santacruz sc7272; antirabbit) was at 1:200 dilution in 5% BSA. The primary antibody for Pyruvate Dehydrogenase beta (PDHB) (Novus Biologicals H00005162-M03; antimouse) was at 1:500 dilution in 5% BSA. After incubation with primary antibodies, the membranes were washed 3 times with TBS-T (1×-15′; 2×5′ each) and probed with the secondary antibody (PDHB antimouse; Hif 1a and Caspase 3 antirabbit; 1:10,000 dilution) for 1 h at room temperature. After 1 h of incubation with secondary antibodies, the blots were washed 3 times with TBS-T (1×-15′; 2×5′ each) and then incubated with ECF reagent for 5 minutes and then each blot scanned with 5100 Fuji Laser scanner at 25 uM resolution, 16 bit, green laser, at 400V and at 500 V.
The above blots were stripped by incubating for 30 minutes with methanol, followed by two 10 minute washes with TBS-T, then 30 minutes of incubation with Stripping buffer at 50 deg C., and followed by two washes with 100 ml or more of TBS-T for 30′ each. The blots were activated with methanol for 5 seconds, washed with water for 5 minutes, and TBST for 15 minutes. The blots are blocked for 1 hour with 5% blocking reagent in TBS-T at room temperature and then washed 3 times with TBS-T (1×-15′; 2×5′ each) and probed with the primary antibody for Transaldolase or Hifla in 5% BSA by incubation overnight at 4 deg C. with gentle shaking. The primary antibody for Transaldolase (Abcam ab67467; antimouse) was at 1:500 dilution. The primary antibody for Hifla (Abcam ab2185; antirabbit) was at 1:500 dilution. After incubation with primary antibodies, the membranes were washed 3 times with TBS-T (1×-15′; 2×5′ each) and probed with the secondary antibody (antimouse or antirabbit; 1:10,000 dilution) for 1 h on the orbital tilting shaker at room temperature. After 1 h of incubation with secondary antibodies, the blots were washed 3 times with TBS-T (1×-15′; 2×5′ each) and then incubated with ECF reagent for 5 minutes and then each blot scanned with 5100 Fuji Laser scanner at 25 uM resolution, 16 bit, green laser, at 400 & 500V.

SMILES: COC1=C(OC)C(=O)C(C/C=C(\C)CC/C=C(\C)CC/C=C(\C)CC/C=C(\C)CC/C=C(\C)CC/C=C(\C)CC/C=C(\C)CC/C=C(\C)CC/C=C(\C)CCC=C(C)C)=C(C)C1=O [Q10, Coenzyme Q10]
- genes modulated by Q10 treatment (Angiogenesis arrays) [1]: AKT1, ANGPTL4, ANGPEP, CCL2, CDH4, CXCL1, EDG1, EFNA3, EFNB2, EGF, FGF1, ID3, IL1B, 1L8, KDR, NRP1, PECAM1, PROK2, SERPINF1, SPHK1, STAB1, TGFB1, VEGFA and VEGFB
- mRNA's being affected (Apoptosis array) ([2]; Q10 (24 hr)): Bcl2, Bcl2L1, Bcl2L11, Birc6, Bax, Xiap, Hprt1, Apaf1, Ab11, Braf
- Bcl-xl mRNA level ([2]; one of the highest): significant up-regulation
- Hif1 alpha Lower Band Normalized Volume ([3]; 5g48-50): 21664
- Hif1 alpha Lower Band Normalized Volume ([3]; 5g48-100): 19540
- Hif1 alpha Lower Band Normalized Volume ([3]; 22G24-50): 18486
- Hif1 alpha Lower Band Normalized Volume ([3]; 22G24-100): 17919
- Hif1 alpha Lower Band Normalized Volume ([3]; 22G48-50): 17496
- Hif1 alpha Lower Band Normalized Volume ([3]; 22G48-100): 23111
- Hif1 alpha Upper Band Normalized Volume ([3]; HepG2, 5g24-50): 8998
- Hif1 alpha Upper Band Normalized Volume ([3]; HepG2, 5g24-100): 9315
- Hif1 alpha Upper Band Normalized Volume ([3]; HepG2, 5g48-50): 8601
- Hif1 alpha Upper Band Normalized Volume ([3]; HepG2, 5g48-100): 10192
- Hif1 alpha Upper Band Normalized Volume ([3]; HepG2, 22G24-50): 14089
- Hif1 alpha Upper Band Normalized Volume ([3]; HepG2, 22G24-100): 8530
- Hif1 alpha Upper Band Normalized Volume ([3]; HepG2, 22G48-50): 9416
- Hif1 alpha Upper Band Normalized Volume ([3]; HepG2, 22G48-100): 5608
- Hif1 alpha protein levels ([3]; mitochondrial preparations of cancer cells): decreased
- Hif1a lower band ([3]; whole cell lysates of normal cells): decrease
